Experiment [1] concerns the target T1, MBL (Homo sapiens, UniProt P11226).
T1 construct: 3 hr of reoxygenation in the presence of 30% human serum (HS); from tissue; host or cells: human serum (30% HS on HUVECs; 2% human sera on mannan-coated plates)
The experiment can be described thus: iC3b (C3) deposition cell surface ELISA on hypoxic/reoxygenated HUVECs. The format is cell-based. The conditions noted are these: for attenuation of iC3b deposition: HUVECs 24 hr hypoxia, 3 hr reoxygenation; for iC3b deposition compared with normoxic HUVECs (FIG. 4a): 30 mmol/L in 30% human serum; for inhibition of iC3b deposition on hypoxic/reoxygenated HUVECs (in words): sugar at 3-300 mmol/L in 30% HS. As for the experimental part: Enzyme-Linked Immunoabsorbent Assay (ELISA) Experiments. […] HUVECs were grown to confluence on 0.1% gelatinized 96-well plastic plates (Corning Costar, Cambridge, Mass.). The plates were then subjected to 0 (normoxia) or 24 hr of hypoxia. Hypoxic stress was maintained using a humidified sealed chamber (Coy Laboratory Products, Inc., Grass Lake, Mich.) at 37° C. gassed with 1% O2, 5% CO2, balance N2 (Collard C D, et al., “Reoxygenation of hypoxic human umbilical vein endothelial cells activates the classical complement pathway”, Circulation 1997;96:326-333). Following the specified period of normoxia or hypoxia, the cell media were aspirated and 100 μl of one of the following was added to each well: 1) 30% HS, 2) Hank's balanced salt solution, 3) 30% HS+3, 30, or 300 mmol/L GluNAc, 4) 30% HS+3, 30, or 300 mmol/L D-mannose, 5) 30% HS+3, 30, 300 mmol/L L-mannose, 6) 30% MBL-depleted HS+3F8 (0, 20, 50 μg/ml)or 7) 30% MBL-depleted HS +0.6 μg/ml MBL. Additionally, 100 μl of purified MBL (3-300 ng/ml) was added to select wells to form a standard curve for quantitative analysis of MBL deposition. The cells were then reoxygenated for 3 hr at 37° C. in 95% air and 5% CO2. The cells were washed and then fixed with 1% paraformaldehyde (Sigma Chemical Co., St. Louis, Mo.) for 30 min. The cells were then washed and incubated at 4° C. for 1.5 hr with 50 μl of peroxidase-conjugated polyclonal goat anti-human C3 antibody (1:1000 dilution) or monoclonal anti-human MBL antibody (1:1000 dilution). The MBL ELISA plates were then washed and incubated for 1 hr at 4° C. with 50 μl of peroxidase-conjugated polyclonal goat anti-mouse IgG secondary antibody (1:1000 dilution). After washing the cells, the plates were developed with […] of ABTS (2,2′-azino-bis(3-ethylbenzthiazoline-6-sulfonic acid)), and read (Molecular Devices, Sunnyvale, Calif.) at 405 nm. Background controls for the C3 ELISA consisted of cells to which only the anti-human C3 antibody was added (i.e., no […]) or cells incubated with 30% heat-inactivated HS. Background controls for the MBL ELISA consisted of cells to which only secondary antibody and an isotype control monoclonal antibody to porcine C5a were added. Background optical density was subtracted from all groups. All ELISA experiments were performed 3 times using 6 wells per experimental group. Endothelial C3 and MBL deposition on normoxic vs. hypoxic […] was analyzed by two-way analysis of variance (ANOVA).
HUVEC cell culture and quantitation of iC3b deposition by ELISA were performed as outlined in Example 2.
Results. HUVECs were subjected to 0 or 24 hr of hypoxia followed by 3 hr of reoxygenation in the presence of 30% HS or 30% HS treated with 3, 30, or 300 mmol/L GluNAc, D-mannose or L-mannose in order to inhibit MBL deposition, LCP activation and iC3b deposition.
HUBECs were hypoxic for 24 hours and then reoxygenated in 30% human sera. iC3b deposition was then normalized to normoxic cells.

Experiment [2] concerns the target T1, MBL. The experiment can be described thus: Functional screen: C3 deposition on mannan-coated plates in 2% human sera. The format is biochemical. As for the experimental part:
Methods. The functional screen for inhibition of MBL function by anti-human MBL antibodies was adapted from the literature{Super, Levinsky, et al., The level of mannan-binding protein regulates the binding of complement-derived opsonins to mannanand zymosan at low serum concentrations, Clin. Exp. Immunol. 1990; 79:144-150}. Briefly, 100 μl of mcannan (0.5 mg/ml in sodium carbonate/bicarbonate buffer, pH 9.6) was added to RIA/EIA plates at 4C overnight. The plates were then washed 3 times in PBS/0.5% Tween pH 7.3, once in PBS and finally in veronal-buffered saline. Human serum is diluted to 4% in VBS containing 5 mM Ca^2+ and Mg^2+. Diluted sera and tissue culture supernatant or purified antibody (various concentrations) are then 1:1 to a mannan-coated well to yield a final volume or 100 μl at a concentration of 2% human sera. The plate is then incubated at 37C for 30 min. Positive and negative controls consist of human sera without and with 100 mM N-acetlglucosamine (GluNac). The plates are then washed four times in PBS/Tween. The plates are then incubated with an anti-human C3 polyclonal antibody coupled with HRP (1 hours at RT), washed and developed with ABTS and read at 405 nm.

Experiment [3] has as its target T1, MBL. The experiment in a line: MBL deposition cell surface ELISA on hypoxic/reoxygenated HUVECs. The format is cell-based. The conditions noted are these: for attenuation of MBL deposition: HUVECs 24 hr hypoxia, 3 hr reoxygenation. As for the experimental part:
C3 and MBL specific cell surface ELISAs can be performed using peroxidase-conjugated polyclonal goat anti-human C3 antibody (Cappel, West Chester, Pa.) and monoclonal anti-human MBL antibody (Biodesign, Kennebunk, Me., clone #131-1), respectively. HUVECs are grown to confluence on 0.1% gelatinized 96-well plastic plates (Corning Costar, Cambridge, Mass.). The plates are then subjected to 0 (normoxia) or 24 hr of hypoxia. Hypoxic stress is maintained using a humidified sealed chamber (Coy Laboratory Products, Inc., Grass Lake, Mich.) at 37° C. gassed with 1% O2, 5% CO2, balance N2 (Collard C D, et al., “Reoxygenation of hypoxic human umbilical vein endothelial cells activates the classical complement pathway”, Circulation, 1997;96:326-333). Following the specified period of normoxia or hypoxia, the cell media are aspirated and 100 μl of one the following is added to each well: 1) 30% HS, 2) Hank's balanced salt solution, 3) 30% HS +3, 30, or 300 mmol/L GluNAc, 4) 30% HS+3, 30, or 300 mmol/L D-mannose, 5) 30% HS+3, 30, 300 mmol/L L-mannose, 6) 30% MBL-depleted HS 7) 30% MBL-depleted HS+0.6 μg/ml MBL or 8) 30% HS+3, 30, or 300 mmol/L putative MBL binding peptide. Additionally, 100 μl of purified MBL (3-300 ng/ml) is added to select wells to form a standard curve for quantitative analysis of MBL deposition. The cells are then reoxygenated for 3 hr at 37° C. in 95% air and 5% CO2. The cells are washed and then fixed with 1% paraformaldehyde (Sigma Chemical Co., St. Louis, Mo.) for 30 min. The cells are then washed and incubated at 4° C. for 1.5 hr with 50 μl of peroxidase-conjugated polyclonal goat anti-human C3 antibody (1:1000 dilution) or monoclonal anti-human MBL antibody (1:1000 dilution). The MBL ELISA plates are then washed and incubated for 1 hr at 4° C. with 50 μl of peroxidase-conjugated polyclonal goat anti-mouse IgG secondary antibody (1:1000 dilution). After washing the cells, the plates are developed with 50 μl of ABTS (2,2′-azino-bis(3-ethylbenzthiazoline-6-sulfonic acid)), and read (Molecular Devices, Sunnyvale, Calif.) at 405 nm. Background controls for the C3 ELISA consist of cells to which only the anti-human C3 antibody is added (i.e., no HS) or cells incubated with 30% heat-inactivated HS. Background controls for the MBL ELISA consist of cells to which only secondary antibody and an isotype control monoclonal antibody to porcine C5a are added. Background optical density is subtracted from all groups. ELISA experiments are generally performed 3 times using 6 wells per experimental group. Endothelial C3 and MBL deposition on normoxic vs. hypoxic HUVECs is analyzed by two-way analysis of variance (ANOVA).
Enzyme-Linked Immunoabsorbent Assay (ELISA) Experiments. […]
In general terms: ELISA stands for enzyme-linked immunosorbent assay.

For experiment [4], the system named is HUVECs. The experiment can be described thus: Microphysiometry of HUVEC extracellular acidification rate (EAR). The format is cell-based, human. The conditions noted are these: normoxic or hypoxic/reoxygenated HUVECs; MBL 300-1500 ng/ml, 40 min perfusion; histamine 1 μmol/L. As for the experimental part: Microphysiometry. Changes in HUVEC extracellular acidification rate (EAR) were evaluated by use of a Cytosensor microphysiometer (Molecular Devices, Sunnyvale, Calif.). HUVECs were grown to 75% confluence on gelatin-coated (1%) transwell capsules and subjected to 24 hr of hypoxia followed by 3 hr of reoxygenation. Following 30 min of equilibration in modified RPMI containing 1 mmol/L phosphate buffer (Molecular Devices, Sunnyvale, Calif.), the EARs were determined (Gronert K, et al., “Characterization of human neutrophil and endothelial cell ligand-operated extacellular acidification rate by microphysiometry: Impact of reoxygenation”, J. Pharmacol.Exp.Ther. 1998;285:252-261). HUVECs were perfused with 300-1500 ng/ml of purified MBL (dialyzed in the modified RPMI) for 30 sec before the first rate measurement and perfusion was maintained for 40 min. As a positive control, the HUVECs were perfused with media alone for 15 min following MBL exposure and then stimulated with histamine (1 μmol/L, 15 min perfusion) to evoke extracellular acidification. Each concentration of MBL was analyzed in two independent chambers containing normoxic or hypoxic/reoxygenated HUVECs. The HUVEC response to each MBL concentration was evaluated in 3 separate experiments (n=3).

A word on the EC50: it is the concentration giving half of the maximal effect.

T1 sequence (P11226 21-248): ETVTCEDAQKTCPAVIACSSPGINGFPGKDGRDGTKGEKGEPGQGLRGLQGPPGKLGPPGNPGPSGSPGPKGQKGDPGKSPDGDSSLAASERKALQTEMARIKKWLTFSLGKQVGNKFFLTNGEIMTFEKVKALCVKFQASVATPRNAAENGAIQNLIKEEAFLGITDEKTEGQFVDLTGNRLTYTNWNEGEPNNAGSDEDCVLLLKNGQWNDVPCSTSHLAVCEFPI

Consider `O=C[C@@H](O)[C@@H](O)[C@H](O)[C@H](O)CO` [D-mannose], for which the “attenuation of iC3b deposition” value in experiment [1] (3 mmol/L in 30% HS) came to 19±2%; in experiment [1] (30 mmol/L in 30% HS) it was 52±3%; in experiment [1] (300 mmol/L in 30% HS) it was 96±2%. Moreover, the “iC3b deposition compared with normoxic HUVECs (FIG. 4a)” value in experiment [1] is “did not significantly differ from normoxic controls”. Further, the “inhibition of iC3b deposition on hypoxic/reoxygenated HUVECs (in words)” value in experiment [1] is “significantly attenuated”.
In the case of `CC(=O)N[C@H]1C(O)O[C@H](CO)[C@@H](O)[C@@H]1O` (stereo partly drawn) [GluNAc, N-acetyl-D-glucosamine], the EC50 in experiment [2] is about 1 nM. Also, the entries for the “attenuation of MBL deposition” value in experiment [3] (3 mmol/L in 30% HS), in experiment [3] (30 mmol/L in 30% HS) and in experiment [3] (300 mmol/L in 30% HS) were 40±4%, 71±5% and 96±3%, respectively. Also, the “MBL deposition on hypoxic/reoxygenated HUVECs (in words)” value in experiment [3] (3, 30, 300 mmol/L added to 30% HS, dose-dependent) is “significantly inhibited MBL deposition”. Moreover, the “iC3b deposition compared with normoxic HUVECs (FIG. 4a)” value in experiment [1] is “did not significantly differ from normoxic controls”. The “inhibition of iC3b deposition on hypoxic/reoxygenated HUVECs (in words)” value in experiment [1] is recorded as “significantly attenuated”.
For `O=C[C@H](O)[C@H](O)[C@@H](O)[C@@H](O)CO` [L-mannose], in experiment [1], the “iC3b deposition compared with normoxic HUVECs (FIG. 4a)” value is recorded as “significantly greater than normoxic HUVECs” and the “inhibition of iC3b deposition on hypoxic/reoxygenated HUVECs (in words)” value is on record as “did not inhibit iC3b deposition”. Moreover, the “iC3b deposition, OD405” value in experiment [1] (hypoxic HUVECs reoxygenated in 30% HS treated with the sugar, normoxic 0.05±0.01) is listed as 0.14±0.01.
In the case of `NCCc1c[nH]cn1` [histamine], the “change in extracellular acidification rate (EAR)” value in experiment [4] is “all cells remained responsive”.
For the compound “MBL: mannan-(or mannose) binding lectin purified from human plasma”, the “change in extracellular acidification rate (EAR)” value in experiment [4] is reported as “did not evoke receptor-mediated changes in the EAR”.

The values above are taken from patent US7273925B1, “Methods and products for regulating lectin complement pathway associated complement activation” (Brigham and Women's Hospital, Inc., priority 1998, dated 2007).
